According to PubChem BioAssay AID248 (DTP/NCI, 2004):
Where “and” joins values, the source holds several entries; their conditions need not be identical. Equal values may be shown once. Toxic doses and inconclusive results are not listed. Rule as the data show it: active = T/C of 150% or more; inactive = T/C below 125%.

Test system: L1210 leukemia ip in BDF1 mice, survival T/C
Test: NCI In Vivo Anticancer Drug Screen. Data for tumor model L1210 Leukemia (intraperitoneal) in B6D2F1 (BDF1) mice
Details: endpoint: mean survival time, higher = longer survival
Method in brief: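 Value reflects the ratio of survival in compound-treated mice to survival in vehicle-treated controls, with both groups carrying the same transplanted tumor.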

[1] = dose: 50.0 mg/kg/injection, schedule: Q04DX003 (ip), vehicle: saline
[2] = dose: 100.0 mg/kg/injection, schedule: Q01DX001 (ip), vehicle: saline
[3] = dose: 100.0 mg/kg/injection, schedule: Q04DX003 (ip), vehicle: saline
[4] = dose: 200.0 mg/kg/injection, schedule: Q01DX001 (ip), vehicle: saline
[5] = dose: 50.0 mg/kg/injection, schedule: Q01DX009 (ip), vehicle: saline
[6] = dose: 100.0 mg/kg/injection, schedule: Q01DX009 (ip), vehicle: saline
[7] = dose: 25.0 mg/kg/injection, schedule: Q04DX003 (ip), vehicle: Klucel (hydroxypropylcellulose) (HPC)
[8] = dose: 100.0 mg/kg/injection, schedule: Q04DX003 (ip), vehicle: Klucel (hydroxypropylcellulose) (HPC)
[9] = dose: 100.0 mg/kg/injection, schedule: Q01DX001 (ip), vehicle: other
[10] = dose: 200.0 mg/kg/injection, schedule: Q01DX001 (ip), vehicle: other
[11] = dose: 75.0 mg/kg/injection, schedule: Q01DX001 (ip), vehicle: carboxymethylcellulose (CMC)
[12] = dose: 150.0 mg/kg/injection, schedule: Q01DX001 (ip), vehicle: carboxymethylcellulose (CMC)
[13] = dose: 100.0 mg/kg/injection, schedule: Q01DX001 (ip), vehicle: saline with Tween-80
[14] = dose: 200.0 mg/kg/injection, schedule: Q01DX001 (ip), vehicle: saline with Tween-80
[15] = dose: 400.0 mg/kg/injection, schedule: Q01DX001 (ip), vehicle: saline with Tween-80
[16] = dose: 100.0 mg/kg/injection, schedule: Q01DX009 (ip), vehicle: saline with Tween-80
[17] = dose: 200.0 mg/kg/injection, schedule: Q01DX009 (ip), vehicle: saline with Tween-80

Measured: T/C

S=P(Oc1ccccc1)(N1CC1)N1CC1
inactive: dose: 25.0 mg/kg/injection, schedule: Q01DX009 (ip), vehicle: acetone 98 % of control | dose: 50.0 mg/kg/injection, schedule: Q01DX009 (ip), vehicle: acetone 98 % of control | [1] 100 % of control | [2] 87 % of control | dose: 100.0 mg/kg/injection, schedule: Q01DX009 (ip), vehicle: acetone 93 % of control | [3] 92 % of control | dose: 150.0 mg/kg/injection, schedule: Q01DX009 (ip), vehicle: saline 87 % of control | [4] 94 % of control | dose: 225.0 mg/kg/injection, schedule: Q01DX009 (ip), vehicle: saline 87 % of control

C=CCNc1ncnc2c1cnn2C
inactive: [5] 118 % of control | [6] 103 % of control

CC(C)c1ccccc1OC(=O)NC1CCCCC1
inactive: dose: 100.0 mg/kg/injection, schedule: Q04DX002 (ip), vehicle: Klucel (hydroxypropylcellulose) (HPC) 96 % of control | dose: 200.0 mg/kg/injection, schedule: Q04DX002 (ip), vehicle: Klucel (hydroxypropylcellulose) (HPC) 110 % of control | dose: 400.0 mg/kg/injection, schedule: Q04DX002 (ip), vehicle: Klucel (hydroxypropylcellulose) (HPC) 104 % of control

CCC(=O)OC1(c2ccccc2)CCN(CCC(=O)c2ccccc2)CC1
inactive: [7] 103 % of control | dose: 50.0 mg/kg/injection, schedule: Q04DX003 (ip), vehicle: Klucel (hydroxypropylcellulose) (HPC) 101 % of control | [8] 95 % of control and 98 % of control

CCCSCCN=C(N)C(N)=NCCSCCC
inactive: dose: 25.0 mg/kg/injection, schedule: Q04DX002 (ip), vehicle: saline with Tween-80 88 % of control | dose: 50.0 mg/kg/injection, schedule: Q04DX002 (ip), vehicle: saline with Tween-80 95 % of control | dose: 100.0 mg/kg/injection, schedule: Q04DX002 (ip), vehicle: saline with Tween-80 97 % of control and 101 % of control

C/C=N/NC(=O)c1ccc[n+](C)c1
inactive: [5] 93 % of control | [6] 96 % of control | dose: 200.0 mg/kg/injection, schedule: Q01DX009 (ip), vehicle: saline 96 % of control

CN(C)c1ccc(/C=C/c2ccc3ccccc3[n+]2C)cc1
inactive: dose: 1.5 mg/kg/injection, schedule: Q01DX009 (ip), vehicle: Klucel (hydroxypropylcellulose) (HPC) 103 % of control | dose: 3.0 mg/kg/injection, schedule: Q01DX009 (ip), vehicle: Klucel (hydroxypropylcellulose) (HPC) 97 % of control | dose: 3.12 mg/kg/injection, schedule: Q01DX009 (ip), vehicle: Klucel (hydroxypropylcellulose) (HPC) 100 % of control | dose: 6.0 mg/kg/injection, schedule: Q04DX003 (ip), vehicle: Klucel (hydroxypropylcellulose) (HPC) 107 % of control | dose: 6.25 mg/kg/injection, schedule: Q01DX009 (ip), vehicle: Klucel (hydroxypropylcellulose) (HPC) 104 % of control | dose: 12.0 mg/kg/injection, schedule: Q04DX003 (ip), vehicle: Klucel (hydroxypropylcellulose) (HPC) 107 % of control | dose: 12.5 mg/kg/injection, schedule: Q01DX009 (ip), vehicle: Klucel (hydroxypropylcellulose) (HPC) 107 % of control | dose: 25.0 mg/kg/injection, schedule: Q01DX009 (ip), vehicle: Klucel (hydroxypropylcellulose) (HPC) 96 % of control | [7] 86 % of control | [2] 112 % of control | [4] 121 % of control

Nc1c(Br)cc(Br)cc1C(=O)O
inactive: [9] 97 % of control | [10] 97 % of control

NC(N)=N/N=C(\C=N\N=C(N)N)c1ccc(-c2ccc(C(/C=N/N=C(N)N)=N\N=C(N)N)cc2)cc1
inactive: dose: 15.0 mg/kg/injection, schedule: Q01DX Z (oral), vehicle: saline 102 % of control | dose: 30.0 mg/kg/injection, schedule: Q01DX Z (oral), vehicle: saline 96 % of control | dose: 60.0 mg/kg/injection, schedule: Q01DX Z (oral), vehicle: saline 98 % of control | dose: 120.0 mg/kg/injection, schedule: Q01DX Z (oral), vehicle: saline 100 % of control

Cc1cc(Oc2ccc(Cl)cc2NC(=O)Nc2ccc(Cl)c(Cl)c2)c(S(=O)(=O)O)cc1Cl
inactive: dose: 12.5 mg/kg/injection, schedule: Q04DX003 (ip), vehicle: saline 103 % of control | dose: 25.0 mg/kg/injection, schedule: Q01DX009 (ip), vehicle: saline 103 % of control | dose: 25.0 mg/kg/injection, schedule: Q04DX003 (ip), vehicle: saline 105 % of control | [5] 95 % of control | [1] 103 % of control | [6] 101 % of control | [3] 97 % of control

O=C1CCN2CCC(=O)c3c(Cl)ccc1c32
inactive: [9] 100 % of control | [10] 97 % of control | dose: 400.0 mg/kg/injection, schedule: Q01DX001 (ip), vehicle: other 100 % of control

COc1cc(N)c(CC2c3cc(OC)c(OC)cc3CCN2C)cc1OC (stereo unspecified)
inactive: [11] 95 % of control | [12] 95 % of control

CCOC(=O)N/N=C/c1ccccc1O
inactive: [11] 103 % of control | [12] 104 % of control | dose: 300.0 mg/kg/injection, schedule: Q01DX001 (ip), vehicle: carboxymethylcellulose (CMC) 97 % of control

CC(CCc1cccc2ccccc12)(C(=O)O)C(=O)O
inactive: dose: 100.0 mg/kg/injection, schedule: Q01DX009 (ip), vehicle: saline sonified 92 % of control | [8] 104 % of control | dose: 200.0 mg/kg/injection, schedule: Q01DX009 (ip), vehicle: saline sonified 104 % of control | dose: 200.0 mg/kg/injection, schedule: Q04DX003 (ip), vehicle: Klucel (hydroxypropylcellulose) (HPC) 100 % of control | dose: 400.0 mg/kg/injection, schedule: Q04DX003 (ip), vehicle: Klucel (hydroxypropylcellulose) (HPC) 94 % of control

O=C(N/N=C/c1[nH]c(=S)[nH]c(=O)c1Cc1ccc(Cl)cc1)c1ccccc1
inactive: [13] 96 % of control | [14] 92 % of control | [15] 123 % of control

O=C(CCl)Nc1ccc(O)c2ccccc12
inactive: dose: 75.0 mg/kg/injection, schedule: Q01DX001 (ip), vehicle: other 102 % of control | dose: 150.0 mg/kg/injection, schedule: Q01DX001 (ip), vehicle: other 91 % of control

O=c1[nH]cnc2c1nc1n2CCC1
inactive: dose: 50.0 mg/kg/injection, schedule: Q01DX009 (ip), vehicle: saline with Tween-80 93 % of control | [16] 90 % of control | dose: 100.0 mg/kg/injection, schedule: Q04DX003 (ip), vehicle: saline with Tween-80 105 % of control | [17] 88 % of control | dose: 200.0 mg/kg/injection, schedule: Q04DX003 (ip), vehicle: saline with Tween-80 102 % of control

NC(Cc1ccc(OCc2ccccc2)cc1)C(=O)O (stereo unspecified)
inactive: [13] 92 % of control | [16] 95 % of control | [14] 89 % of control | [17] 90 % of control | [15] 89 % of control | dose: 400.0 mg/kg/injection, schedule: Q01DX009 (ip), vehicle: saline with Tween-80 96 % of control
